Experimental findings from PubChem BioAssay (NCI) are described below.

Where “and” joins values, the source holds several entries; their conditions need not be identical. Identical values can stand only once.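 Growth conditions: 96-well plates. Treatment: test compound, 48 hours, 5 concentrations. Analysis: linear interpolation between bracketing concentrations; unreached endpoints set to highest concentration. GI50 marks 50% less growth. Definition used: TGI = concentration required for complete inhibition of growth.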 A value given as a limit tells only on which side of the number the result lay.

Among the test systems are HCT-116 colon; HOP-62 NSCLC; IGROV1 ovarian; KM12 colon; OVCAR-8 ovarian; SK-MEL-28 melanoma; SN12C renal; SNB-19 CNS; TK-10 renal; UO-31 renal.
What all share (test): NCI tumour cell line growth inhibition, 48 h

For the compound `O=C(O)CCCc1cc2c(s1)-c1cccc3cccc-2c13`, the TGI in the assay with HCT-116 colon is greater than 100 µM; in the assay with HOP-62 NSCLC, greater than 100 µM; in the assay on IGROV1 ovarian, greater than 100 µM; in the assay with KM12 colon, 42.3 µM; in the assay with OVCAR-8 ovarian, greater than 100 µM; with SK-MEL-28 melanoma, greater than 100 µM. For the same compound, the TGI in the assay with SN12C renal was 80.4 µM; with SNB-19 CNS it was greater than 100 µM; in the assay with TK-10 renal, greater than 100 µM; in the assay on UO-31 renal it was 43.4 µM.
For the compound `Cc1cc2nc3c4cc([N+](=O)[O-])ccc4n(CCN(C)C)c3nc2cc1C`, the GI50 in the assay with HCT-116 colon was 0.353 µM; in the assay with HOP-62 NSCLC, 0.579 µM; in the assay on IGROV1 ovarian, 0.385 µM; in the assay on KM12 colon it was 0.56 µM; in the assay on OVCAR-8 ovarian, 0.509 µM; in the assay with SK-MEL-28 melanoma, 0.967 µM. Besides, the GI50 is 0.448 µM in the assay on SN12C renal, 0.487 µM in the assay with SNB-19 CNS, 0.373 µM in the assay on TK-10 renal and 0.187 µM in the assay with UO-31 renal. Further, the TGI in the assay on HCT-116 colon was 2.84 µM; in the assay on HOP-62 NSCLC, greater than 40 µM; in the assay on IGROV1 ovarian, 3.23 µM; in the assay on KM12 colon, greater than 100 µM; in the assay with OVCAR-8 ovarian it was greater than 88 µM; in the assay with SK-MEL-28 melanoma, 2.48 µM. Also, the TGI in the assay with SN12C renal is greater than 54.8 µM; in the assay with SNB-19 CNS, greater than 32 µM; in the assay with TK-10 renal, 4.34 µM; in the assay on UO-31 renal, 2.52 µM.
On to `N/C(=N/N=C/c1cccc(F)c1)NO`, for which the TGI is greater than 100 µM in the assay on HCT-116 colon; 82.1 µM in the assay on HOP-62 NSCLC; greater than 100 µM in the assay with IGROV1 ovarian; greater than 100 µM with KM12 colon; greater than 100 µM with OVCAR-8 ovarian; greater than 100 µM in the assay on SK-MEL-28 melanoma. For the same compound, the TGI in the assay with SN12C renal, with SNB-19 CNS, with TK-10 renal and with UO-31 renal was greater than 100 µM throughout.
On to `CSCC(COC(C)=O)(CSC)c1ccncc1`, for which the TGI in the assay with HCT-116 colon, in the assay with HOP-62 NSCLC, in the assay with IGROV1 ovarian, in the assay on KM12 colon, in the assay with OVCAR-8 ovarian and in the assay on SK-MEL-28 melanoma was greater than 100 µM in each case. Also, the TGI in the assay with SN12C renal, in the assay with SNB-19 CNS, in the assay with TK-10 renal and in the assay with UO-31 renal was greater than 100 µM in each case.
Consider `ClCc1ccc(-c2ccc(Cn3cnc4c(Cl)ncnc43)cc2)cc1`, for which the GI50 was 1.48 µM with HCT-116 colon; 1.84 µM in the assay with HOP-62 NSCLC; 3.59 µM with IGROV1 ovarian; 1.59 µM with KM12 colon; 2.8 µM in the assay with OVCAR-8 ovarian; 2.49 µM in the assay with SK-MEL-28 melanoma. Moreover, the GI50 was 1.64 µM in the assay with SN12C renal, 2.59 µM in the assay on SNB-19 CNS, 1.65 µM in the assay with TK-10 renal and 2.29 µM with UO-31 renal. Besides, the TGI came to 2.79 µM with HCT-116 colon; 3.63 µM in the assay with HOP-62 NSCLC; 57.2 µM with IGROV1 ovarian; 3.56 µM in the assay with KM12 colon; 8.95 µM in the assay with OVCAR-8 ovarian; 7.79 µM in the assay on SK-MEL-28 melanoma. The TGI was 3.69 µM with SN12C renal, 8.1 µM in the assay with SNB-19 CNS, 3.58 µM in the assay with TK-10 renal and 5.21 µM in the assay with UO-31 renal.
Consider `O=C(CC(=O)N1N=C(c2ccccc2)C(N=Nc2ccccc2Cl)C1=O)Nc1ccccc1Cl` (configuration not stated), for which the TGI with HCT-116 colon, in the assay on HOP-62 NSCLC, in the assay on IGROV1 ovarian, in the assay on KM12 colon, in the assay on OVCAR-8 ovarian and with SK-MEL-28 melanoma was greater than 100 µM each time. The TGI in the assay on SN12C renal was greater than 100 µM; in the assay on SNB-19 CNS, greater than 100 µM; in the assay with TK-10 renal, 40.6 µM; in the assay on UO-31 renal it was greater than 100 µM.
For `COc1ccc(/C=C/C(=O)c2ccccc2)cc1OC`, the GI50 in the assay with HCT-116 colon is 3.51 µM; in the assay on HOP-62 NSCLC, 19.3 µM; in the assay on IGROV1 ovarian, 15.4 µM; with KM12 colon it was 6 µM; in the assay with SK-MEL-28 melanoma, 17.6 µM; in the assay with SN12C renal, 13.1 µM. Moreover, the GI50 in the assay with TK-10 renal is 13.6 µM. Besides, the TGI with HCT-116 colon was 20.2 µM and 14.2 µM; in the assay on HOP-62 NSCLC, 31.1 µM and 43 µM; in the assay on IGROV1 ovarian it was 49.7 µM and 43.7 µM; in the assay on KM12 colon, 10.2 µM and > 100 µM; in the assay on OVCAR-8 ovarian, 39.6 µM and 39.2 µM; with SK-MEL-28 melanoma, 38.1 µM and 32 µM. Besides, the TGI in the assay on SN12C renal was 30.6 µM and 29 µM; with SNB-19 CNS, 24.6 µM and 26.7 µM; with TK-10 renal, 32 µM and 27.8 µM; in the assay on UO-31 renal it was 27.2 µM and 27.3 µM.
`Clc1ccc(Nc2ncnc3c2sc2ncccc23)c(Cl)c1`: the GI50 was less than 0.01 µM with HCT-116 colon; less than 0.01 µM with HOP-62 NSCLC; greater than 100 µM in the assay with IGROV1 ovarian; 3.39 µM in the assay with KM12 colon; less than 0.0135 µM in the assay with OVCAR-8 ovarian; 6.39 µM in the assay on SK-MEL-28 melanoma. The GI50 in the assay with SN12C renal is 0.126 µM; in the assay on SNB-19 CNS, less than 0.0121 µM; in the assay with TK-10 renal, greater than 100 µM; with UO-31 renal, less than 0.01 µM. Moreover, the TGI in the assay on HCT-116 colon is greater than 100 µM; with HOP-62 NSCLC it was greater than 19.7 µM; with IGROV1 ovarian it was greater than 100 µM; in the assay with KM12 colon, greater than 100 µM; in the assay with OVCAR-8 ovarian, greater than 100 µM; in the assay with SK-MEL-28 melanoma it was greater than 100 µM. Also, the TGI is greater than 100 µM in the assay with SN12C renal, greater than 100 µM with SNB-19 CNS, greater than 100 µM with TK-10 renal and 4.32 µM in the assay with UO-31 renal.
As for `NC(CSC1(c2ccc(Cl)cc2)c2ccccc2-c2ccccc21)C(=O)O` (configuration not stated), the TGI was 34.6 µM in the assay on HCT-116 colon; 49.6 µM in the assay with HOP-62 NSCLC; 29.4 µM in the assay with IGROV1 ovarian; 63.2 µM with KM12 colon; 38.7 µM with OVCAR-8 ovarian; greater than 100 µM with SK-MEL-28 melanoma. The TGI in the assay with SN12C renal is 41.4 µM; in the assay with SNB-19 CNS, 52.8 µM; in the assay with TK-10 renal it was 48.3 µM; with UO-31 renal, 98.8 µM.
